The source of these data is ChEMBL document CHEMBL1150977, “A quantitative analysis of kinase inhibitor selectivity” (Nat Biotechnol, 2008).

Usually Kd stands for the concentration at which binding is half-saturated. High values mean lower affinity, low ones higher affinity.

Assay [1] has as its target T1, Protein kinase C epsilon type (Homo sapiens, UniProt Q02156).
T1 sequence (Q02156 whole entry): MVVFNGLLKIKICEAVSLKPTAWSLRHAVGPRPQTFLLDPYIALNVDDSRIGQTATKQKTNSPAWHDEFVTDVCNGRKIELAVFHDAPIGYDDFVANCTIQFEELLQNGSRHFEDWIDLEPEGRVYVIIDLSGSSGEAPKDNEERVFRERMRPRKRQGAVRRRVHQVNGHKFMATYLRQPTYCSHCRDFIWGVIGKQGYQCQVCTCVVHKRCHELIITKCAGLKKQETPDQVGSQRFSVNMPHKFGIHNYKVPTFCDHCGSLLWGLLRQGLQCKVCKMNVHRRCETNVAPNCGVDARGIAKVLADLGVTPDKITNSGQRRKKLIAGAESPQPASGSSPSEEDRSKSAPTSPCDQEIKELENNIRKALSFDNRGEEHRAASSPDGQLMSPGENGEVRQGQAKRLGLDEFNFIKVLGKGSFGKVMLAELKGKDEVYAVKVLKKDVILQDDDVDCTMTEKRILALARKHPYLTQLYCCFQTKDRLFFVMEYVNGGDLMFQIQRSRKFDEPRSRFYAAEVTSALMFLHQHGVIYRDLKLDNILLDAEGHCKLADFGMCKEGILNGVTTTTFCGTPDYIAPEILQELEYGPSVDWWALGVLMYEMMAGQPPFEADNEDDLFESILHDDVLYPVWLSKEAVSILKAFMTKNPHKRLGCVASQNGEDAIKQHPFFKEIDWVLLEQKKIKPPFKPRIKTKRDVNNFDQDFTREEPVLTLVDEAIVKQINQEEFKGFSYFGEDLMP

Assay [2] has as its target Serine/threonine-protein kinase PLK1 (Homo sapiens, UniProt P53350).
Assay [3] concerns the target Serine/threonine-protein kinase B-raf (Homo sapiens, UniProt P15056).
The target of assay [4] is T2, MAP/microtubule affinity-regulating kinase 4 (Homo sapiens, UniProt Q96L34).
T2 sequence (Q96L34 whole entry): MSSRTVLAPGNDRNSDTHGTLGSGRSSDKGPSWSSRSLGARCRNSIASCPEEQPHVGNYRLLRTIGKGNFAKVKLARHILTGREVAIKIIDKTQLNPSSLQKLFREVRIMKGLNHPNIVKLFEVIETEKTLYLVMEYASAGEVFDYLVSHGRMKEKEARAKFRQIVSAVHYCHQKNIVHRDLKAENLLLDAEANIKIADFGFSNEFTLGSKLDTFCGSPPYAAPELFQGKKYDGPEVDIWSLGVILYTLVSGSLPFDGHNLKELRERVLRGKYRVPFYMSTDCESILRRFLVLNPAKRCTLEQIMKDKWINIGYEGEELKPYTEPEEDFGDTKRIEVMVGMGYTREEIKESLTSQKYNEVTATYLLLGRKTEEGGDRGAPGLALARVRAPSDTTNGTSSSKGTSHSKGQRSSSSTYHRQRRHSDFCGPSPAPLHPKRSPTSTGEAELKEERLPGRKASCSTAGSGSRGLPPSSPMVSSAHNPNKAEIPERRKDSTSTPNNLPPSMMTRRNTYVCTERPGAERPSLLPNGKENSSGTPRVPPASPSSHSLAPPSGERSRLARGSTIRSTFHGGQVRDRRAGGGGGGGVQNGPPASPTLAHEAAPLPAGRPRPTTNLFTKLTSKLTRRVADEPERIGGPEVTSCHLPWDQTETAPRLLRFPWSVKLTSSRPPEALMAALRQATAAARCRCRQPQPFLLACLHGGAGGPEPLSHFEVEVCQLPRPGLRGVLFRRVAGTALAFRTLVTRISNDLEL

Assay [5] has as its target T3, Cyclin-dependent kinase 11A (Homo sapiens, UniProt Q9UQ88).
T3 sequence (Q9UQ88 whole entry): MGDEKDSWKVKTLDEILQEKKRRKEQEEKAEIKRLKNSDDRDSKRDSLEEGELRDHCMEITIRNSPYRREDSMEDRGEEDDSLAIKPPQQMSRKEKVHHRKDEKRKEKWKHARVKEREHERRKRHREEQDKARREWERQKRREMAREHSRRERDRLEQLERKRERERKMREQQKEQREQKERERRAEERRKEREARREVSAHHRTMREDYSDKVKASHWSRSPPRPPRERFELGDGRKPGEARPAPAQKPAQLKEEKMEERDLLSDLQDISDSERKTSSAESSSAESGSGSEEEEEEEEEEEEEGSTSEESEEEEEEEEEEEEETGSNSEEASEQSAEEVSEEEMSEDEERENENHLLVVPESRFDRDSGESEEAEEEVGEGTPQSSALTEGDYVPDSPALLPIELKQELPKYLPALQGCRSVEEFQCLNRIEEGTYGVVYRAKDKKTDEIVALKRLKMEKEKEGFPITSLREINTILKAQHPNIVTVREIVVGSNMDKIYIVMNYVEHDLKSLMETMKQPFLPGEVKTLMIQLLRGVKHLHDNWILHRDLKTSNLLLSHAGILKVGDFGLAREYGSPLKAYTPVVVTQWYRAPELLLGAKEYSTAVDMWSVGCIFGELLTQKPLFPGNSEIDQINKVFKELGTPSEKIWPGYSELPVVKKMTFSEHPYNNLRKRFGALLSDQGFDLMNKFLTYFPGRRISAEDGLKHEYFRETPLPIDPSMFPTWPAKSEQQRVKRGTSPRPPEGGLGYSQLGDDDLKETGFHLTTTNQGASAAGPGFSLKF

Assay [6] concerns the target Ribosomal protein S6 kinase alpha-2 (Homo sapiens, UniProt Q15349).

Serine/threonine-protein kinase PLK1, sequence (P53350 whole entry): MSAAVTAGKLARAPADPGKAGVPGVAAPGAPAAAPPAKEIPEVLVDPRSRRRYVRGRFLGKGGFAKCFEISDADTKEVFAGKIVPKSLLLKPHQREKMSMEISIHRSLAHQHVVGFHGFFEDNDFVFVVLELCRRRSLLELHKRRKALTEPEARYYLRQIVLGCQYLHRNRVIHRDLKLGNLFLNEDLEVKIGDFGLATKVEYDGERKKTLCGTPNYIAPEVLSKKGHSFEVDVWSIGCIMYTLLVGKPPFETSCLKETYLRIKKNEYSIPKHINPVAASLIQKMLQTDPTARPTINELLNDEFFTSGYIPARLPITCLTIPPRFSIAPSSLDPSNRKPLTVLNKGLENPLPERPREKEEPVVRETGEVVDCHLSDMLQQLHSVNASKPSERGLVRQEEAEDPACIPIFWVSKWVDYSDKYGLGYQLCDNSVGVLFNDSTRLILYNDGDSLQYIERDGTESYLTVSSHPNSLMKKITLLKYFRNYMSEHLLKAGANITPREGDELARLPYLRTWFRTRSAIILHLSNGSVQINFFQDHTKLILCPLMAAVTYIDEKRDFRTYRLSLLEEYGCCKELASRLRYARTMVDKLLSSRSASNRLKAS
Serine/threonine-protein kinase B-raf, sequence (P15056 whole entry): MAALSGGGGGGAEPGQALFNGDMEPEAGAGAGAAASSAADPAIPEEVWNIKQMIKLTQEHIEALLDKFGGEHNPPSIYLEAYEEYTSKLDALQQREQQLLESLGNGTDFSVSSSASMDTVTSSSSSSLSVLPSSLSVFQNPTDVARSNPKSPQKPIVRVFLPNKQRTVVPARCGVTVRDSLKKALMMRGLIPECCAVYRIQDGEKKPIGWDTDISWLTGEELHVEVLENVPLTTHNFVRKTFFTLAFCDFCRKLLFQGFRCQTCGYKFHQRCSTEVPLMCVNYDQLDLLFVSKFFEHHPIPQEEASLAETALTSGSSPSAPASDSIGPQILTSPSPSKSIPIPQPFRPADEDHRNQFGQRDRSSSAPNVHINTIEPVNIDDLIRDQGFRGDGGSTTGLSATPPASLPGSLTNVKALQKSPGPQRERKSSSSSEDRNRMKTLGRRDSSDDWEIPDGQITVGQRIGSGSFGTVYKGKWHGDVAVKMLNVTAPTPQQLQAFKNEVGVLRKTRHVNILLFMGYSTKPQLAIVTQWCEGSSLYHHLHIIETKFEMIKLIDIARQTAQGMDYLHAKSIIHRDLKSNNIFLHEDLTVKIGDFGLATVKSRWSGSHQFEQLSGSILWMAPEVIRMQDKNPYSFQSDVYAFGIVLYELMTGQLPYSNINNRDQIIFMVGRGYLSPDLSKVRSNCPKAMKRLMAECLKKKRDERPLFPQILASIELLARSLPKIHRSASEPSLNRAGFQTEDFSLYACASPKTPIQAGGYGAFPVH
Ribosomal protein S6 kinase alpha-2, sequence (Q15349 whole entry): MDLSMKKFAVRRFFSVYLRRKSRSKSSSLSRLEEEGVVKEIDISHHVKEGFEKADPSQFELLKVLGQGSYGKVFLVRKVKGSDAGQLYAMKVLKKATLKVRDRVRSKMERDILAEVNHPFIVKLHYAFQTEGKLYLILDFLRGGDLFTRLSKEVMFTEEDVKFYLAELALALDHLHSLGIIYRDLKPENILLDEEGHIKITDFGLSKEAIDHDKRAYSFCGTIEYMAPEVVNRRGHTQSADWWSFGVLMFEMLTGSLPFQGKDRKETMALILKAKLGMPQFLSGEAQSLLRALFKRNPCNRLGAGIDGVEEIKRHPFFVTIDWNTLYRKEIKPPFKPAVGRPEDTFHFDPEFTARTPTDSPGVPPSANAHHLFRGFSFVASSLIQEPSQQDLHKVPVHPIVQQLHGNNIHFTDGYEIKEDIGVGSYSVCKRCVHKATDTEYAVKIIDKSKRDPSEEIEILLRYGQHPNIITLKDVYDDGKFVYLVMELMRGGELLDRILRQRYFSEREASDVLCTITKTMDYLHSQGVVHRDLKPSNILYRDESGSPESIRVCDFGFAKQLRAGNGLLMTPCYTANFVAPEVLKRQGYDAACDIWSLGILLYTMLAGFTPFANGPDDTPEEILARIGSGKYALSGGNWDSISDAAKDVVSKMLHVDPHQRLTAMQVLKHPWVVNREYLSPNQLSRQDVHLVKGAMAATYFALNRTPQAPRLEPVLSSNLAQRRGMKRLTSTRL

On to `Oc1ccc(-c2nc(-c3ccncc3)c(-c3ccc(F)cc3)[nH]2)cc1` [SB-202190], for which the Kd in assay [1] is more than 10 µM; in assay [2], more than 10 µM; in assay [3], 4.8 µM; in assay [4], more than 10 µM; in assay [5], more than 10 µM; in assay [6], more than 10 µM.

`COCC(=O)NC/C=C/c1ccc2ncnc(Nc3ccc(Oc4ccc(C)nc4)c(C)c3)c2c1` [CP-724714]: the Kd in assay [1], in assay [2], in assay [4], in assay [5] and in assay [6] was more than 10 µM in each case.

`Nc1nc(Nc2ccc(S(N)(=O)=O)cc2)nn1C(=O)c1c(F)cccc1F` [JNJ-7706621]: the Kd is more than 10 µM in assay [1], 5 µM in assay [2], more than 10 µM in assay [3] and 0.41 µM in assay [6].

Consider `NC(=O)c1ccc(-c2nc(-c3ccc4c(c3)OCO4)c(-c3ccccn3)[nH]2)cc1` [SB-431542], for which the Kd in assay [1], in assay [2], in assay [4], in assay [5] and in assay [6] was more than 10 µM in each case.

For `CCOc1cc2ncc(C#N)c(Nc3ccc(F)c(Cl)c3)c2cc1NC(=O)/C=C/CN(C)C` [PELITINIB], the Kd in assay [1], in assay [2], in assay [3], in assay [4], in assay [5] and in assay [6] was more than 10 µM in each case.
